Molecular target: Thromboxane A2 receptor (Homo sapiens, UniProt P21731)
Sequence (P21731 as listed by the source): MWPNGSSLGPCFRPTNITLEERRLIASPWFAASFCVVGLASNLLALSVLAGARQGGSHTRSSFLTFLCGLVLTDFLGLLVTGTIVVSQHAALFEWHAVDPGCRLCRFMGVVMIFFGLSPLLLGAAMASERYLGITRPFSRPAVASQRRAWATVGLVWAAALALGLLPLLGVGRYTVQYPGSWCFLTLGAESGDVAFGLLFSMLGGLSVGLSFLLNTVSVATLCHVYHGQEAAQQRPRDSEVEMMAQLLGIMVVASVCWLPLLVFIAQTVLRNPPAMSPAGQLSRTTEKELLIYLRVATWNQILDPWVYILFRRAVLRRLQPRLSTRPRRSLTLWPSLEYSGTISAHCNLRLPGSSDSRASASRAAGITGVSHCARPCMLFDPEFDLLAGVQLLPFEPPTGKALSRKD

Ki | Compound
3.1 nM | CCCCCNC(=O)NS(=O)(=O)c1cc([N+](=O)[O-])ccc1Nc1ccc(C)cc1
0.8 nM | Cc1ccc(Nc2ccc([N+](=O)[O-])cc2S(=O)(=O)NC(=O)NC(C)(C)C)cc1 [BM 573]
